Earlier results in paper PMC9008720 (Biomedical chromatography : BMC, 2022).

Tested on: GBM tumor
Settings: ref Zalcman et al., 2018

For `CNC(=O)c1ccc(N2C(=S)N(c3ccc(C#N)c(C(F)(F)F)c3)C(=O)C2(C)C)cc1F` [enzalutamide], the “GBM tumor growth in nude mice” value is listed as “reduced the GBM tumor growth”.
